Data: patent publication US6512000B1, “Aminocarbonyl-substituted benzimidazoles having tryptase-inhibitory activity” (Boehringer Ingelheim Pharma KG, priority 1999, dated 2003)

The compounds below were run against T1, rh beta tryptase (Homo sapiens, UniProt P20231) (assay: Tryptase inhibition test (cleavage of N-p-tosyl-Gly-Pro-Lys-para-nitroaniline, p-nitroaniline measured at 405 nm)). Details: concentration at which 50% of the tryptase enzyme activity is inhibited; substrate 0.6 mM, pH 7.4, 37° C.
T1 construct: purchased Promega
T1 sequence (P20231 31-275): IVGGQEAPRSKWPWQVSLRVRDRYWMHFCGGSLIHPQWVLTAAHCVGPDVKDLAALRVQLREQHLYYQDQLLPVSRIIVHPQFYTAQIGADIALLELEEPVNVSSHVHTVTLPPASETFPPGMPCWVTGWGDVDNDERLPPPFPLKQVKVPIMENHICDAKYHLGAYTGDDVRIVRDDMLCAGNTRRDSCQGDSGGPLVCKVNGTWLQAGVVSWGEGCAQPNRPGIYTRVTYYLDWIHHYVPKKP
Type: biochemical
How it was run: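 Screening at 10 μM gives percent inhibition, with IC50 derived for compounds above 70% inhibition. Enzyme: rh beta tryptase, 0.91 U/ml, pH 7.4 Tris HCl (100 mM), 5 mM Ca, 100 mg/ml heparin. After 5 min compound pre-incubation, 0.6 mM pNA substrate cleaved 5 min at 37 °C, monitored at 405 nm.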
In the case of CCOCCCn1c(CCc2ccc(C(=N)N)cc2)nc2cc(C(=O)N(CCN)Cc3ccccc3)ccc21 [Example 294, 2-[2-(4-amidinophenyl)ethyl]-1-(3-ethoxypropyl)-benzimidazol-5-yl-carboxylic acid-N-(2-aminoethyl)-N-benzyl-amide], the IC50 is reported as 350 nM. CCOCCCn1c(CCc2ccc(C(=N)N)cc2)nc2cc(C(=O)N(CCN)c3ccccn3)ccc21 [Example 310, 2-[2-(4-amidinophenyl)ethyl]-1-(3-ethoxypropyl)-benzimidazol-5-yl-carboxylic acid-N-(2-aminoethyl)-N (2-pyridyl)-amide] gave an IC50 of 253 nM. CCOCCCn1c(CCc2ccc(C(=N)N)cc2)nc2cc(C(=O)N(CCN)CC3CCCCC3)ccc21 [Example 342, 2-[2-(4-amidinophenyl)ethyl]-1-(3-ethoxypropyl)-benzimidazol-5-yl-carboxylic acid-N-(2-aminoethyl)-N-cyclohexylmethyl-amide] showed an IC50 of 275 nM. In the case of CCOCCCn1c(CCc2ccc(C(=N)N)cc2)nc2cc(C(=O)N(CCN)CCCc3ccccc3)ccc21 [Example 358, 2-[2-(4-amidinophenyl)ethyl]-1-(3-ethoxypropyl)-benzimidazol-5-yl-carboxylic acid-N-(2-aminoethyl)-N-(3-phenylpropyl)-amide], the IC50 is reported as 169 nM.

Same assay, conditions: inhibition of rh beta tryptase at 10 μM test substance; substrate N-p-tosyl-Gly-Pro-Lys-para-nitroaniline 0.6 mM, pH 7.4, 37° C., 5 minutes
CCCCN(CCN)C(=O)c1ccc2c(c1)nc(CCc1ccc(C(=N)N)cc1)n2CCCNC(=O)Cc1ccccc1 [Example 280, 2-[2-(4-amidinophenyl)ethyl]-1-[3-(benzylcarbonylamino)-propyl]-benzimidazol-5-yl-carboxylic acid-N-(2-aminoethyl)-N-n-butyl-amide] was tested, and the inhibition at 10 µM was 59%. Work on CCCCN(CCN)C(=O)c1ccc2c(c1)nc(CCc1ccc(C(=N)N)cc1)n2CC1CC1 [Example 282, 2-[2-(4-amidinophenyl)ethyl]-1-cyclopropylmethyl-benzimidazol-5-yl-carboxylic acid-N-(2-aminoethyl)-N-n-butyl-amide] yielded an inhibition at 10 µM of 65%. With CCCCN(CCN)C(=O)c1ccc2c(c1)nc(CCc1ccc(C(=N)N)cc1)n2CCc1ccccc1 [Example 283, 2-[2-(4-amidinophenyl)ethyl)-1-(2-phenylethyl)-benzimidazol-5-yl-carboxylic acid-N-(2-aminoethyl)-N-n-butyl-amide] the inhibition at 10 µM was 59%. With CCCCN(CCN)C(=O)c1ccc2c(c1)nc(CCc1ccc(C(=N)N)cc1)n2CCc1ccc(Cl)cc1 [Example 284, 2-[2-(4-amidinophenyl)ethyl]-1-[2-(4-chlorophenyl)ethyl]-benzimidazol-5-yl-carboxylic acid-N-(2-aminoethyl)-N-n-butyl-amide] the inhibition at 10 µM was 55%. With CCCCN(CCN)C(=O)c1ccc2c(c1)nc(CCc1ccc(C(=N)N)cc1)n2CCCN1CCN(c2ccccc2C)CC1 [Example 288, 2-[2-(4-amidinophenyl)ethyl]-1-{3-[4-(2-methylphenyl)-piperazin-1-yl]-propyl}-benzimidazol-5-yl-carboxylic acid-N-(2-aminoethyl)-N-n-butyl-amide] the inhibition at 10 µM was 65%. Work on CCCCN(CCN)C(=O)c1ccc2c(c1)nc(CCc1ccc(C(=N)N)cc1)n2CC1CCCO1 (centres unmarked) [Example 290, 2-[2-(4-amidinophenyl)ethyl]-1-(tetrahydrofuran-2-yl-methyl)-benzimidazol-5-yl-carboxylic acid-N-(2-aminoethyl)-N-n-butyl-amide] yielded an inhibition at 10 µM of 70%. CCCCN(CCN)C(=O)c1ccc2c(c1)nc(CCc1ccc(C(=N)N)cc1)n2Cc1cccs1 [Example 291, 2-[2-(4-amidinophenyl)ethyl]-1-(2-thiophenyl-methyl)-benzimidazol-5-ylcarboxylic acid-N-(2-aminoethyl)-N-n-butyl-amide] showed an inhibition at 10 µM of 75%. CCOCCCn1c(CCc2ccc(C(=N)N)cc2)nc2cc(C(=O)N(CCN)Cc3ccccc3)ccc21 [Example 294, 2-[2-(4-amidinophenyl)ethyl]-1-(3-ethoxypropyl)-benzimidazol-5-yl-carboxylic acid-N-(2-aminoethyl)-N-benzyl-amide] gave an inhibition at 10 µM of 69%. In the case of CCCCN(CCCC)CCCn1c(CCc2ccc(C(=N)N)cc2)nc2cc(C(=O)N(CCN)Cc3ccccc3)ccc21 [Example 295, 2-[2-(4-amidinophenyl)ethyl]-1-(3-di-n-butylaminopropyl)-benzimidazol-5-yl-carboxylic acid-N-(2-aminoethyl)-N-benzyl-amide], the inhibition at 10 µM is reported as 55%. For N=C(N)c1ccc(CCc2nc3cc(C(=O)N(CCN)Cc4ccccc4)ccc3n2CCCNC(=O)Cc2ccccc2)cc1 [Example 296, 2-[2-(4-amidinophenyl)ethyl]-1-[3-(benzylcarbonylamino)-propyl]-benzimidazol-5-yl-carboxylie acid-N-(2-aminoethyl)-N-benzyl-amide], the “% Inhibition (10 μM)” value was 51%. For N=C(N)c1ccc(CCc2nc3cc(C(=O)N(CCN)Cc4ccccc4)ccc3n2CC2CC2)cc1 [Example 298, 2-[2-(4-amidinophenyl)ethyl]-1-cyclopropylmethyl-benzimidazol-5-yl-carboxylic acid-N-(2-aminoethyl)-N-benzyl-amide], the inhibition at 10 µM was 57%. Work on Cc1ccccc1N1CCN(CCCn2c(CCc3ccc(C(=N)N)cc3)nc3cc(C(=O)N(CCN)Cc4ccccc4)ccc32)CC1 [Example 304, 2-[2-(4-amidinophenyl)ethyl]-1-{3-[4-(2-methylphenyl)-piperazin-1-yl]-propyl}-benzimidazol-5-yl-carboxylic acid-N-(2-aminoethyl)-N-benzyl-amide] yielded an inhibition at 10 µM of 51%. In the case of N=C(N)c1ccc(CCc2nc3cc(C(=O)N(CCN)Cc4ccccc4)ccc3n2CC2CCCO2)cc1 (centres unmarked) [Example 306, 2-[2-(4-amidinophenyl)ethyl]-1-(tetrahydrofuran-2-yl-methyl)-benzimidazol-5-yl-carboxylic acid-N-(2-aminoethyl)-N-benzyl-amide], the inhibition at 10 µM is reported as 62%. For N=C(N)c1ccc(CCc2nc3cc(C(=O)N(CCN)Cc4ccccc4)ccc3n2Cc2cccs2)cc1 [Example 307, 2-[2-(4-amidinophenyl)ethyl]-1-(2-thiophenyl-methyl)-benzimidazol-5-yl-carboxylic acid-N-(2-aminoethyl)-N-benzyl-amide], the inhibition at 10 µM was 57%. In the case of CCOCCCn1c(CCc2ccc(C(=N)N)cc2)nc2cc(C(=O)N(CCN)c3ccccn3)ccc21 [Example 310, 2-[2-(4-amidinophenyl)ethyl]-1-(3-ethoxypropyl)-benzimidazol-5-yl-carboxylic acid-N-(2-aminoethyl)-N (2-pyridyl)-amide], the “% Inhibition (10 μM)” value is reported as 70%. CCOCCCn1c(CCc2ccc(C(=N)N)cc2)nc2cc(C(=O)N(CCN)CC3CCCCC3)ccc21 [Example 342, 2-[2-(4-amidinophenyl)ethyl]-1-(3-ethoxypropyl)-benzimidazol-5-yl-carboxylic acid-N-(2-aminoethyl)-N-cyclohexylmethyl-amide] gave an inhibition at 10 µM of 75%. N=C(N)c1ccc(CCc2nc3cc(C(=O)N(CCN)CC4CCCCC4)ccc3n2CC2CC2)cc1 [Example 346, 2-[2-(4-amidinophenyl)ethyl]-1-cyclopropylmethyl-benzimidazol-5-yl-carboxylic acid-N-(2-aminoethyl)-N-cyclohexylmethyl-amide] showed an inhibition at 10 µM of 51%. For Cc1ccccc1N1CCN(CCCn2c(CCc3ccc(C(=N)N)cc3)nc3cc(C(=O)N(CCN)CC4CCCCC4)ccc32)CC1 [Example 352, 2-[2-(4-amidinophenyl)ethyl]-1-{3-[4-(2-methylphenyl)-piperazin-1-yl]-propyl}-benzimidazol-5-yl-carboxylic acid-N-(2-aminoethyl)-N-cyclohexylmethyl-amide], the inhibition at 10 µM was 51%. Work on N=C(N)c1ccc(CCc2nc3cc(C(=O)N(CCN)CC4CCCCC4)ccc3n2CC2CCCO2)cc1 (centres unmarked) [Example 354, 2-[2-(4-amidinophenyl)ethyl]-1-(tetrahydrofuran-2-yl-methyl)-benzimidazol-5-yl-carboxylic acid-N-(2-aminoethyl)-N-cyclohexylmethyl-amide] yielded an inhibition at 10 µM of 58%. For N=C(N)c1ccc(CCc2nc3cc(C(=O)N(CCN)CC4CCCCC4)ccc3n2Cc2cccs2)cc1 [Example 355, 2-[2-(4-amidinophenyl)ethyl]-1-(2-thiophenyl-methyl)-benzimidazol-5-yl-carboxylic acid-N-(2-aminoethyl)-N-cyclohexylmethyl-amide], the inhibition at 10 µM was 51%. For CCOCCCn1c(CCc2ccc(C(=N)N)cc2)nc2cc(C(=O)N(CCN)CCCc3ccccc3)ccc21 [Example 358, 2-[2-(4-amidinophenyl)ethyl]-1-(3-ethoxypropyl)-benzimidazol-5-yl-carboxylic acid-N-(2-aminoethyl)-N-(3-phenylpropyl)-amide], the inhibition at 10 µM was 77%. In the case of CCCCN(CCCC)CCCn1c(CCc2ccc(C(=N)N)cc2)nc2cc(C(=O)N(CCN)CCCc3ccccc3)ccc21 [Example 359, 2-[2-(4-amidinophenyl)ethyl]-1-(3-di-n-butylaminopropyl)-benzimidazol-5-yl-carboxylic acid-N-(2-aminoethyl)-N-(3-phenylpropyl)-amide], the inhibition at 10 µM is reported as 59%. N=C(N)c1ccc(CCc2nc3cc(C(=O)N(CCN)CCCc4ccccc4)ccc3n2CC2CC2)cc1 [Example 362, 2-[2-(4-amidinophenyl)ethyl]-1-cyclopropylmethyl-benzimidazol-5-yl-carboxylic acid-N-(2-aminoethyl)-N-(3-phenylpropyl)-amide] gave an inhibition at 10 µM of 74%. For N=C(N)c1ccc(CCc2nc3cc(C(=O)N(CCN)CCCc4ccccc4)ccc3n2CCCN2CCOCC2)cc1 [Example 369, 2-[2-(4-amidinophenyl)ethyl]-1-[3-(morpholin-4-yl)-propyl]-benzimidazol-5-yl-carboxylic acid-N-(2-aminoethyl)-N-(3-phenylpropyl)-amide], the inhibition at 10 µM was 57%. N=C(N)c1ccc(CCc2nc3cc(C(=O)N(CCN)CCCc4ccccc4)ccc3n2CC2CCCO2)cc1 (centres unmarked) [Example 370, 2-[2-(4-amidinophenyl)ethyl]-1-(tetrahydrofuran-2-yl-methyl)-benzimidazol-5-yl-carboxylic acid-N-(2-aminoethyl)-N-(3-phenylpropyl)-amide] gave an inhibition at 10 µM of 53%. N=C(N)c1ccc(CCc2nc3cc(C(=O)N(CCN)CCCc4ccccc4)ccc3n2Cc2cccs2)cc1 [Example 371, 2-[2-(4-amidinophenyl)ethyl]-1-(2-thiophenyl-methyl)-benzimidazol-5-yl-carboxylic acid-N-(2-aminoethyl)-N-(3-phenylpropyl)-amide] gave an inhibition at 10 µM of 55%. CCOCCCn1c(CCc2ccc(C(=N)N)cc2)nc2cc(C(=O)N(CCN)Cc3ccc(Cl)cc3)ccc21 [Example 374, 2-[2-(4-amidinophenyl)ethyl]-1-(3-ethoxypropyi)-benzimidazol-5-yl-carboxylic acid-N-(2-aminoethyl)-N-(4-chlorbenzyl)-amide] was tested, and the “% Inhibition (10 μM)” value was 62%. With CCCCN(CCCC)CCCn1c(CCc2ccc(C(=N)N)cc2)nc2cc(C(=O)N(CCN)Cc3ccc(Cl)cc3)ccc21 [Example 375, 2-[2-(4-amidinophenyl)ethyl]-1-(3-di-n-butylaminopropyl)-benzimidazol-5-yl-carboxylic acid-N-(2-aminoethyl)-N-(4-chlorbenzyl)-amide] the “% Inhibition (10 μM)” value was 58%.
